These results are taken from patent publication US20060135569A1, “Use of benzisoselenazolone compounds against ischemic myocardial damage” (priority 2002, published 2006).

Marks after values point to notes of the source that are not given here.

Data set [1] has as its system normal rats. The experiment in a line: Cardiac function and hemodynamics in normal rats. Format: in vivo, rat. As to conditions: 30 mg/kg orally; normal anesthetized rats. As for the experimental part:
Method: Male SD rats, weighing 300-350 g were fasted for 12 hrs and anesthetized by i.p. treatment with 20% Urethane (0.5 ml/100 g, 1 g/kg). Polyethylene tubes (PE-50) were inserted into the left femoral artery, left femoral vein, right femoral vein and the left ventricle. The left femoral artery was cannulated for blood collection, and the left femoral vein was cannulated for liquid compensation, the right femoral artery was cannulated for blood pressure detection, the left ventricle was cannulated for ventricular pressure detection, the left femoral artery and ventricle were cannulated and the catheter was linked with pressure transducer by triplet. Signals were acquired by oscillograph and multi-channel biodynamic recorder linked with the pressure transducer. Rats in drug-treating group were orally administered with IMM-004 at 30 mg/kg, while rats in vehicle control group was orally treated with equal volume of vehicle (PEG). Left ventricular systolic pressure (LVSP), left ventricular end-diastolic pressure (LVEDP), and maximum rate of left ventricular pressure (±dp/dtmax), artery systolic pressure (SP), artery diastolic pressure (DP), mean artery pressure (MAP) and heart rate (HR) were recorded 40 min after the administration. Signals were continuously recorded in every 10 min.

Data set [2] concerns rats subjected to myocardial ischemia/reperfusion insult. The experiment in a line: Cardiac function and hemodynamics in rats subjected to myocardial ischemia/reperfusion. Format: in vivo, rat. Conditions: 30 mg/kg orally. How it is done:
Method: Male SD rats weighing 300-350 g were fasted for 12 hrs and anesthetized by i.p. treatment with 20% Urethane (0.5 ml/100 g, 1 g/kg). Polyethylene tubes (PE-50) were inserted into the left femoral artery, left femoral vein, right femoral vein and the left ventricle. The left femoral artery was cannulated for blood collection, and the left femoral vein was cannulated for liquid compensation, the right femoral artery was cannulated for blood pressure detection, the left ventricle was cannulated for ventricular pressure detection, left femoral artery and ventricle were cannulated and the catheter was linked with pressure transducer by triplet. Signals were acquired by oscillograph and multi-channel biodynamic recorder linked with the pressure transducer. Rats in drug-treated group were orally treated with IMM-004 at 30 mg/kg, while rats in vehicle control group was orally treated with an equal volume of vehicle (PEG). Dissect the trachea and artificial respiration was performed via respirator after thoracotomy (2 ml/100 g). A left thoracotomy was performed from the forth to fifth intercostals space by cutting off the forth and fifth rib 2 mm from the left border of sternum, and the pericardium was opened to expose the heart. A 3.0 silk ligature was placed under the left anterior descending coronary artery. The heart was taken back to the chest and allowed to stabilize for 10 min. The ends of the suture were threaded through a polyethylene tube (3×8 mm) to form a snare. Pull the ends of the suture taut and clamp the snare with a hemostat to occlude the coronary artery. Coronary artery occlusion was verified by epicardial cyanosis and subsequent decrease in arterial blood pressure. Reprefusion of the heart was initiated via unclamping the hemostat and loosening the snare for 15 min. Left ventricular systolic pressure (LVSP), left ventricular end-diastolic pressure (LVEDP), and maximum rate of left ventricular pressure (±dp/dtmax), artery systolic pressure (SP), artery diastolic pressure (DP), mean artery pressure (MAP) and heart rate (HR) were continuously recorded every 10 min before and after thoracotomy and during the period of ischemia (15 min) and reperfusion (1 h).

The test system of data set [3] is acute myocardial ischemia in anesthetized dogs. The experiment in a line: Acute myocardial ischemia and infarction in anesthetized dogs. Format: in vivo, dog. As for the experimental part: Dogs were divided into three groups: 1, vehicle control group, PEG 1 ml/kg, n=5; 2, dilthiazem group, 5 mg/kg, n=5; 3, IMM-004 group, 30 mg/kg, n=5. The tested drugs were prepared in distilled water at volume of 1 ml/kg. The tested items were administrated via duodenum by animals.

[4] abbreviates: N-BT staining, Dilthiazem 5 mg/kg, IMM-004 30 mg/kg, % according to b137.

As for `O=c1c2cc(Cl)ccc2[se]n1-c1ccccn1` [IMM-004, 5-chloro-2-(2-pyridyl)-1,2-benz-isoselenazol-3(2H)-one], the “LVSP, LVEDP, ±dp/dtmax, SP, DP, MAP and heart rate (HR)” value in data set [1] is given as “not significantly influenced”. In data set [2], the “+dp/dtmax” value was “about +110 mmHg/s”, the Heart rate result is given as “not influenced”, the MAP was found to be 80 mmHg and the SBP worked out at 100 mmHg. In data set [2] (decreased steadily from 120 mmHg), this compound registered an LVSP of 100 mmHg. The LVEDP entry in data set [2] (equal to the baseline) was “about −6 mmHg”. Further, the “−dp/dtmax” value in data set [2] (reduced from 100 mmHg/s) amounted to 70 mmHg/s. In data set [3] (30 mg/kg), the “infarction size (of heart) decrease compared with the vehicle control” value was 69.18% and the “infarction size (of ventricle) decrease compared with the vehicle control” value worked out at 67.94%. Also, the “Σ-ST decreased by” value in data set [3] (30 mg/kg via duodenum, 180 min after administration) is listed as 53.90±20.60%. For the same compound, the “severity of myocardial ischemia (Σ-ST)” value in data set [3] (30 mg/kg via duodenum, 180 min after administration, from 325.20±55.95 mV) is given as 146.80±60.25 mV. The “Coronary flow (under heading arterial and venous blood oxygen content)” value in data set [3] (30 mg/kg, 120 min and 180 min after administration, vs baseline) is recorded as “significantly increased”. Further, in data set [3] (30 mg/kg, N-BT staining), the “Myocardial infarction size, % of heart” value came to 2.04±0.93% and the “Myocardial infarction size, % of ventricular” value came out at 5.08±2.00%. Further, in data set [3] (30 mg/kg, vs vehicle control), the “elevation of LDH activity” value was “no effect”, the “elevation of serum AST” value is listed as “significantly inhibited” and the “elevation of serum CK” value is reported as “significantly inhibited”. Moreover, in data set [3] (30 min after treatment, 30 mg/kg), the “Coronary flow increase verse the baseline” value stood at 15.02±22.16%. Also, in data set [3] (setting [4]), the “Infarction area/ heart area” value is listed as 2.04 ± 0.93 and the Infarction area/ventricle area is reported as 5.08 ± 2.00. For the same compound, the “Infarction area mm^2” value in data set [3] (N-BT staining, Dilthiazem 5 mg/kg, IMM-004 30 mg/kg, X ± SD) is listed as 255.70 ± 58.2*** mm^2. In addition, the “Myocardial infarction size, in words” value in data set [3] (N-BT staining, IMM-004 30 mg/kg, dilthiazem 5 mg/kg) is reported as “significantly reduced”. Besides, the “Coronary flows, in words” value in data set [3] (after treatment, dilthiazem 5 mg/kg, IMM-004 30 mg/kg) was “significantly increased”.
